Experimental data as given in ChEMBL document CHEMBL2157951, “Polysulfated xanthones: multipathway development of a new generation of dual anticoagulant/antiplatelet agents” (J Med Chem, 2011).
One block for each molecule: values may come before it. Calls of active or inactive are those of the source. The calls are words filed in the database; no cut-off is given here.

Assays:
[1] = test system: Plasma; assay: Anticoagulant activity in human plasma assessed as effect on thrombin time at 5 x 10^-3 M by coagulometer analysis; format: functional, cell-free
[2] = test system: Plasma; assay: Anticoagulant activity in human plasma assessed as effect on activated partial thromboplastin time at 5 mM by coagulometer analysis relative to untreated control; format: functional
[3] = test system: Plasma; assay: Anticoagulant activity in human plasma assessed as effect on prothrombin time at 5 mM by coagulometer analysis relative to untreated control; format: functional
[4] = Stability in RPMI medium at 37 degC assessed as compound degradation incubated for 24 hrs; format: physicochemical
[5] = test system: Blood; assay: Anticoagulant activity in human whole blood assessed as time from beginning of clot formation until the amplitude of thromboelastogram reaches 20 mm at 3.12 x 10^-4 M by thromboelastography analysis in presence of intrinsic activator (reference value: 82 sec); format: functional
[6] = test system: Plasma; assay: Anticoagulant activity in human plasma assessed as concentration required to double the activated partial thromboplastin time by coagulometer analysis; format: functional
[7] = molecular target: Coagulation factor X/antithrombin III (Homo sapiens, UniProt P00742+P01008); assay: Inhibition of human factor 10a/antithrombin 3 assessed as CBS 31.39 substrate hydrolysis by spectrophotometric analysis; format: protein-complex assay
[8] = test system: Blood; assay: Anticoagulant activity in human whole blood assessed as acceleration/kinetics of fibrin buildup and cross-linking at 3.12 x 10^-4 M by thromboelastography analysis in presence of intrinsic activator (reference value: 77 degree); format: functional
[9] = test system: Plasma; assay: Anticoagulant activity in human plasma assessed as effect on prothrombin time by coagulometer analysis; format: functional, cell-free
[10] = test system: Plasma; assay: Anticoagulant activity in human plasma assessed as concentration required to double the thrombin time by coagulometer analysis; format: functional
[11] = test system: Blood; assay: Anticoagulant activity in human whole blood assessed as amplitude of the clot at 10 mins at 3.12 x 10^-4 M by thromboelastography analysis in presence of intrinsic activator (reference value: 57 mm); format: functional
[12] = test system: Plasma; assay: Reduction of prothrombin level in citreated human plasma by measuring prothrombin clotting time after mixing with factor 2 deficient plasma
[13] = test system: Plasma; assay: Anticoagulant activity in human plasma assessed as concentration required to double the prothrombin time by coagulometer analysis; format: functional
[14] = molecular target: Prothrombin (Homo sapiens) (UniProt P00734); assay: Inhibition of human thrombin assessed as chromozym TH substrate hydrolysis at 1 x 10^-4 to 1 x 10^-3 M by spectrophotometric analysis in presence of antithrombin-3
[15] = molecular target: Prothrombin (Homo sapiens) (UniProt P00734); assay: Inhibition of human thrombin assessed as chromozym TH substrate hydrolysis at 1.9 x 10^-9 by spectrophotometric analysis
[16] = molecular target: Vitamin K-dependent protein C (Homo sapiens) (UniProt P04070); assay: Inhibition of activated protein C in citreated human plasma using CBS 42.46 as substrate at 2 x 10^-3 M by chromogenic assay
[17] = molecular target: T1, Coagulation factor X (Homo sapiens, UniProt P00742); assay: Inhibition of human factor 10a assessed as CBS 31.39 substrate hydrolysis by spectrophotometric analysis
[18] = molecular target: Vitamin K-dependent protein C (Homo sapiens) (UniProt P04070); assay: Inhibition of activated protein C in citreated human plasma using CBS 42.46 as substrate at 2.50 x 10^-4 M by chromogenic assay
[19] = molecular target: Coagulation factor X/antithrombin III (Homo sapiens) (UniProt P01008+P00742); assay: Inhibition of human factor 10a/antithrombin 3 assessed as CBS 31.39 substrate hydrolysis at 1 x 10^-3 M by spectrophotometric analysis; format: protein-complex assay
[20] = test system: Plasma; assay: Anticoagulant activity in human plasma assessed as effect on thrombin time by coagulometer analysis; format: functional, cell-free
[21] = molecular target: T1, Coagulation factor X; assay: Inhibition of human factor 10a assessed as CBS 31.39 substrate hydrolysis at 1 x 10^-3 M by spectrophotometric analysis
[22] = test system: Blood; assay: Anticoagulant activity in human whole blood assessed as period of time from initiation of the test to the initial fibrin formation at 3.12 x 10^-4 M by thromboelastography analysis in presence of intrinsic activator (reference value: 188 sec); format: functional
[23] = test system: Plasma; assay: Anticoagulant activity in human plasma assessed as effect on activated partial thromboplastin time by coagulometer analysis; format: functional, cell-free
[24] = test system: Mus musculus; assay: Hepatotoxicity in mouse assessed as GPT level in plasma at 300 umol/kg, ip after 120 mins (reference value: 40 U/L); format: toxicity, organism-based; details: in vivo, 2 h
[25] = test system: Mus musculus; assay: Anticoagulant activity in mouse assessed as increase of activated partial thromboplastin time at 300 umol/kg, po; format: functional, organism-based
[26] = Chemical stability of the compound in sodium acetate buffer at pH 5 assessed as compound remaining at 1 x 10^-5 M after 120 mins by HPLC analysis; format: physicochemical; details: read-out: Stability
[27] = test system: Mus musculus; assay: Anticoagulant activity in ip dosed mouse assessed as increase of activated partial thromboplastin time; format: functional, organism-based
[28] = test system: Mus musculus; assay: Anticoagulant activity in mouse assessed as increase of activated prothrombin time at 300 umol/kg, po; format: functional, organism-based
[29] = molecular target: T1, Coagulation factor X; assay: Non-competitive inhibition of human factor 10a using CBS 31.39 as substrate hydrolysis by Michaelis-Menten equation analysis
[30] = Chemical stability of the compound in HCl buffer at pH 1 assessed as compound remaining at 1 x 10^-5 M after 120 mins by HPLC analysis; format: physicochemical; details: read-out: Stability
[31] = test system: Mus musculus; assay: Anticoagulant activity in ip dosed mouse assessed as increase of prothrombin time; format: functional, organism-based
[32] = Chemical stability of the compound in sodium boric acid at pH 9.1 assessed as compound remaining at 1 x 10^-5 M after 120 mins by HPLC analysis; format: physicochemical; details: sodium boric acid buffer, read-out: Stability
[33] = Chemical stability of the compound in aqueous solution at 1.00 x 10^-2, 1.00 x 10^-4 and 1.00 x 10^-6 M at room temperature after 15 days by HPLC analysis; details: buffer, 360 h, 10 mM, 100 µM, 1 µM
[34] = Chemical stability of the compound in aqueous solution at 1.00 x 10^-2, 1.00 x 10^-4 and 1.00 x 10^-6 M at -20 degC after 15 days by HPLC analysis; details: buffer, 360 h, 10 mM, 100 µM, 1 µM
[35] = Chemical stability of the compound in potassium phosphate buffer at pH 6.7 assessed as compound remaining at 1 x 10^-5 M after 120 mins by HPLC analysis; format: physicochemical; details: read-out: Stability
[36] = test system: Plasma; assay: Metabolic stability in human plasma after 3 hrs by HPLC analysis by HPLC analysis; format: ADME, cell-free
[37] = test system: Mus musculus; assay: Anticoagulant activity in mouse assessed as increase of thrombin time at 150 and 300 umol/kg, ip measured after 120 mins; format: functional, organism-based
[38] = Chemical stability of the compound in aqueous solution at 1.00 x 10^-2, 1.00 x 10^-4 and 1.00 x 10^-6 M at 4 degC after 15 days by HPLC analysis; details: buffer, 360 h, 10 mM, 100 µM, 1 µM
[39] = test system: Mus musculus; assay: Anticoagulant activity in mouse assessed as increase of activated partial thromboplastin time at 150 and 300 umol/kg, ip measured after 120 mins; format: functional, organism-based
[40] = test system: Mus musculus; assay: Hepatotoxicity in mouse assessed as GOT level in plasma at 300 umol/kg, ip after 120 mins (reference value: 108 U/L); format: toxicity, organism-based; details: in vivo, 2 h
[41] = Chemical stability of the compound in phosphate buffered saline at pH 7.4 assessed as compound remaining at 1 x 10^-5 M after 120 mins by HPLC analysis; format: physicochemical; details: read-out: Stability
[42] = test system: Mus musculus; assay: Anticoagulant activity in mouse assessed as increase of activated thrombin time at 300 umol/kg, po; format: functional, organism-based
[43] = test system: Mus musculus; assay: Anticoagulant activity in mouse assessed as increase of prothrombin time at 150 and 300 umol/kg, ip measured after 120 mins; format: functional, organism-based
[44] = test system: Mus musculus; assay: Anticoagulant activity in ip dosed mouse assessed as increase of thrombin time; format: functional, organism-based
[45] = Solubility of the compound in water; format: physicochemical; details: buffer

Compound: O=c1c2cc(O)c(O)cc2oc2cc(O)c([C@@H]3O[C@H](CO)[C@@H](O)[C@H](O)[C@H]3O)c(O)c12
Activity [1]: inactive
Activity [2]: inactive
Activity [3]: inactive

degraded at 24 h ([4]; RPMI medium, read-out: Drug degradation): 50%
Compound: Oc1ccc(/C=C/c2cc(O)cc(O)c2)cc1 [RESVERATROL]

Compound: O=S(=O)(O)Oc1ccc(/C=C/c2cc(O)cc(O)c2)cc1
Stability ([4]; 24 h): Stable

Compound: O=c1c2ccc(O[C@@H]3O[C@H](COS(=O)(=O)O)[C@@H](OS(=O)(=O)O)[C@H](OS(=O)(=O)O)[C@H]3OS(=O)(=O)O)cc2oc2cc(O[C@@H]3O[C@H](COS(=O)(=O)O)[C@@H](OS(=O)(=O)O)[C@H](OS(=O)(=O)O)[C@H]3OS(=O)(=O)O)ccc12
Time [5]: 114 s
2aPTT [6]: 0.06 mM
IC50 [7]: 190 µM
Activity [8]: 68 degree
Activity [9]: Dose-dependent effect
Activity [10]: 0.61 mM
Activity [11]: 51 mm
Activity [12]: Active
2PT [13]: 0.71 mM
inhibition [14]: inactive
inhibition [15]: 37%
inhibition [16]: > 50%
IC50 [17]: 740 µM
inhibition [18]: inactive
inhibition [19]: 88.8%
Activity [20]: Dose-dependent effect
inhibition [21]: 66.3%
Time [22]: 469 s
Activity [23]: Dose-dependent effect

Compound: O=c1c2cc(OS(=O)(=O)O)c(OS(=O)(=O)O)cc2oc2cc(OS(=O)(=O)O)c([C@@H]3O[C@H](COS(=O)(=O)O)[C@@H](OS(=O)(=O)O)[C@H](OS(=O)(=O)O)[C@H]3OS(=O)(=O)O)c(O)c12 [MANGIFERIN HEPTASULFATE]
Activity [24]: 46 U/L
Activity [25]: inactive
remaining at 2 h, 10 µM [26]: > 85%
Time [5]: 86 s
2aPTT [6]: 0.21 mM
Activity [27]: Dose-dependent effect
Activity [28]: inactive
inhibition [29]: Active
remaining at 2 h, 10 µM [30]: > 85%
Activity [31]: Dose-dependent effect
Activity [8]: 73 degree
remaining at 2 h, 10 µM [32]: > 85%
Stability [33]: Stable
Activity [9]: Dose-dependent effect
Stability [34]: Stable
remaining at 2 h, 10 µM [35]: > 85%
Stability [36]: Stable
Activity [10]: 1.96 mM
Activity [37]: Active
Stability [38]: Stable
Activity [11]: 50 mm
Activity [39]: Active
Activity [12]: Active
Activity [40]: 125 U/L
2PT [13]: 1.6 mM
inhibition [14]: inactive
remaining at 2 h, 10 µM [41]: > 85%
inhibition [15]: 37%
inhibition [16]: > 50%
Activity [42]: inactive
IC50 [17]: 970 µM
inhibition [18]: inactive
inhibition [19]: 41%
Activity [43]: Active
Activity [44]: Dose-dependent effect
Activity [20]: Dose-dependent effect
inhibition [21]: 52.1%
Time [22]: 247 s
solubility [45]: soluble
Activity [23]: Dose-dependent effect

Compound: O=c1c2ccc(O[C@@H]3O[C@H](CO)[C@@H](O)[C@H](O)[C@H]3O)cc2oc2cc(O[C@@H]3O[C@H](CO)[C@@H](O)[C@H](O)[C@H]3O)ccc12
Activity [1]: inactive
Activity [2]: inactive
Activity [3]: inactive

Compound: O=c1c2ccc(OS(=O)(=O)O)cc2oc2cc(OS(=O)(=O)O)ccc12
Activity [1]: inactive
2aPTT [6]: >5 mM
2PT [13]: >5 mM
fold change (FC) [2]: 1.3
fold change (FC) [3]: 1.1

Compound: O=c1c2cc(O)c(O)cc2oc2cc(O)c([C@@H]3O[C@H](COS(=O)(=O)O)[C@@H](OS(=O)(=O)O)[C@H](OS(=O)(=O)O)[C@H]3OS(=O)(=O)O)c(O)c12
2aPTT [6]: 0.39 mM
Activity [9]: Dose-dependent effect
Activity [20]: Dose-dependent effect
Activity [23]: Dose-dependent effect
